According to patent publication US4076947A, “Cycloalkyl and cycloalkenyl prostaglandin congeners” (American Cyanamid Company, priority 1977, dated 1978):
Like-named read-outs stand apart in the source and are kept apart here.

Legend:
Assay type in all cases: in vivo
[1] = system: bronchospasms elicited by intravenous injections of histamine; assay: Bronchodilator activity, Konzett procedure, against histamine; details: three logarithmic cumulative intravenous doses, guinea pigs
Protocol: (§1) Bronchodilator activity was determined in guinea pigs against bronchospasms elicited by intravenous injections of 5-hydroxytryptamine, histamine or acetylcholine by the Konzett procedure. [See J. Lulling, P. Lievens, F. El Sayed and J. Prignot, Arzneimittel-Forschung, 18, 995 (1968)].
(§2) In the Table which follows bronchodilator activity for representative compounds of this invention against one or more of three spasmogenic agents is expressed as an ED50 determined from the results obtained with three logarithemic cumulative intravenous doses.

[2] = system: ulcerogenic properties of indomethacin; assay: Protection against indomethacin-induced gastric ulcers in rats (ulcer score); details: total oral dose 6.25 mg./kg. in two halves; indomethacin 20 mg./kg. s.c.; scale 0-4; control score 3.0; lowering by 0.5 or more = active
Source text: The novel compounds of the present invention have potential utility as hypotensive agents, anti-ulcer agents, agents for the treatment of gastric hypersecretion and gasteric erosion, bronchodilators, abortifacients, agents for the induction of labor, agents for the induction of menses, fertility-controlling agents, central nervous system regulatory agents, salt and water-retention regulatory agents, diuretics, fat metabolic regulatory agents, serum-cholesterol lowering agents, anti-inflammatory agents and as agents for the inhibition of platelet aggregation. […] The compounds of this invention provide protection against the ulcerogenic properties of indomethacin. A measure of this utility which also measures potential anti-ulcer properties is the assay which follows.
Rats were starved for 48 hours (water was given ad libitum). Indomethacin (20 mg./kg. of body weight) was administered by the subcutaneous route and one-half the dose of the test compound was administered by gavage at the same time. After three hours, the second half of the test compound was administered also by gavage. Five hours after the administration of indomethacin the animals were decapitated and the stomachs removed. The stomachs were washed with distilled water, blotted on gauze, cut along the larger curvature, and the contents rinsed with distilled water. […]

[3] = system: bronchospasms elicited by intravenous injections of acetylcholine; assay: Bronchodilator activity, Konzett procedure, against acetylcholine; details: Cavia porcellus, three logarithmic cumulative intravenous doses, guinea pigs, read-out: ED50, spasmogenic agent acetyl choline
Protocol: as §1, §2

[4] = system: bronchospasms elicited by intravenous injections of 5-hydroxytryptamine; assay: Bronchodilator activity, Konzett procedure, against 5-hydroxytryptamine; details: Cavia porcellus, three logarithmic cumulative intravenous doses, guinea pigs, read-out: ED50, spasmogenic agent 5-hydroxytryptamine
Protocol: as §1, §2

SMILES | Score, Treated [2] | ED50 [3] [mg/kg] | ED50 [4] [mg/kg] | also measured
O=C(O)CCCCCCC1C(=O)CC(O)C1C=CC(O)CC1CCCC1 (stereo not drawn) [d,l 9-oxo-11α,15-epi-dihydroxy-17,20-methano-13-trans-proste] [d,l 9-oxo-11α,15-epi-dihydroxy-17,20-methano-13-trans-prostenoic acid] | 2.3 | – | – | ED50, spasmogenic agent histamine ([1]; listed as d,1-9-oxo-11α-15-epi-dihydroxy-17,20-methano-13-trans-prostenoic acid): 0.042 mg/kg
O=C(O)CCCCCCC1C(=O)C=CC1C=CC(O)CC1CCCC1 (stereo not drawn) [d,1-9-oxo-15-hydroxy-17,20-methano-10,13-trans-prostadienoic acid] | – | 0.292 | 0.0546 | ED50 ([1]; Cavia porcellus, iv, read-out: ED50, spasmogenic agent histamine): 0.041 mg/kg
O=C(O)CCCCCCC1C(=O)CC(O)C1C=CC(O)CC1CCCC1 (stereo not drawn) [d,l 9-oxo-11α,15-dihydroxy-17,20-methano-13-trans-prostenoic] [d,l 9-oxo-11α,15-dihydroxy-17,20-methano-13-trans-prostenoic acid] | 1.5 | – | – | ED50, spasmogenic agent histamine ([1]; listed as d,1-9-oxo-11α-15-dihydroxy-17,20-methano-13-trans-prostenoic acid): 0.000444 mg/kg
O=C(O)CCCCCCC1C(=O)CC(O)C1C=CC(O)CC1CCCC1 (stereo not drawn) [d,l 9-oxo-11α,15-epi-dihydroxy-17,20-methano-13-trans-prostenoic acid] | – | – | – | ED50 ([4]; no power of ten printed): 0.228 mg/kg
O=C(O)CCCCCCC1C(=O)CC(O)C1C=CC(O)CC1CCCC1 (stereo not drawn) [d,l 9-oxo-11α,15-dihydroxy-17,20-methano-13-trans-prostenoic acid] | – | 0.0013 | 0.0018 | –
